Assay [1] has as its target T1, TIE2 kinase (Homo sapiens, UniProt Q02763).
T1 construct: made in house; host or cells: baculovirus expression (insect cells)
The assay can be described thus: TIE2 kinase inhibition. It is filed as biochemical. An excerpt: TIE-2 Enzyme Assay (TIE2-E)
The TIE-2 enzyme assay uses the LANCE method (Wallac) and GST-TIE2, baculovirus expressed recombinant constructs of the intracellular domains of human TIE2 (amino acids 762-1104, GenBank Accession #L06139) tagged by GST). The method measures the ability of the purified enzymes to catalyse the transfer of the γ-phosphate from ATP onto tyrosine residues in a biotinylated synthetic peptide, D1-15 (biotin-C6-LEARLVAYEGWVAGKKKamide). This peptide phosphorylation is detected using the following procedure: for enzyme preactivation, GST-TIE2 is incubated for 30 mins at room temperature with 2 mM ATP, 5 mM MgCl2 and 12.5 mM DTT in 22.5 MM HEPES buffer (pH7.4). Preactivated GST-TIE2 is incubated for 30mins at room temperature in 96 well plates with 1 uM D1-15 peptide, 80 uM ATP, 10 mM MgCl2, 0.1 mg/ml BSA and the test compound (diluted from a 10 mM stock in DMSO, final DMSO concentration is 2.4%) in 1 mM HEPES (pH7.4). The reaction is stopped by the addition of EDTA (final concentration 45 mM). Streptavidin linked-APC (allophycocyanin, Molecular Probe) and Europium-labeled anti-phosphorylated tyrosine antibody (Wallac) are then added at the final concentration of 17 ug/well and 2.1 ug/well, respectively. The APC signal is measured using an ARVO multilabel counter. (Wallac Berthold Japan). The percent inhibition of activity is calculated relative to blank control wells. The concentration of test compound that inhibits 50% of activity (IC50) is interpolated using nonlinear regression (Levernberg-Marquardt) and the equation, y=Vmax (1−x/(K+x))+Y2, where “K” is equal to the IC50. The IC50 values are converted to pIC50 values, i.e., -log IC50 in Molar concentration.
TIE-2 Enzyme Assay (TIE2-E2
The TIE-2 enzyme assay uses the LANCE method (Wallac) and GST-TIE2, baculovirus-expressed recombinant constructs of the intracellular domains of human TIE2 (amino acids 762-1104, GenBank Accession #L06139) tagged by GST). The method measures the ability of the purified enzymes to catalyse the transfer of the γ-phosphate from ATP onto tyrosine residues in a biotinylated synthetic peptide, D1-15 (biotin-C6-LEARLVAYEGWVAGKKKamide). This peptide phosphorylation is detected using the following procedure: for enzyme preactivation, GST-TIE2 is incubated for 2 hours at room temperature with 80 μM ATP, 10 mM MgCl2, 0.1 mg/ml BSA, 0.01% Tween 20 and 1 mM DTT in 100 mM HEPES buffer (pH7.4). […] The APC signal is measured using an Wallac Multilabel 1420 counter. […] The percent inhibition of activity is calculated relative to blank control wells. […]
Tie2 Fluorescence Polarization Kinase Activity Assay: (TIE2-FP) […]

For assay [2], the target named is Raf kinase. Briefly: Raf kinase inhibition. Format: biochemical.

The text below walks through data of US20060241149A1, “Chemical compounds” (priority 2002, published 2006).

Where a name gives a salt, the structure may show the parent alone.

T1 sequence (Q02763 762-1104): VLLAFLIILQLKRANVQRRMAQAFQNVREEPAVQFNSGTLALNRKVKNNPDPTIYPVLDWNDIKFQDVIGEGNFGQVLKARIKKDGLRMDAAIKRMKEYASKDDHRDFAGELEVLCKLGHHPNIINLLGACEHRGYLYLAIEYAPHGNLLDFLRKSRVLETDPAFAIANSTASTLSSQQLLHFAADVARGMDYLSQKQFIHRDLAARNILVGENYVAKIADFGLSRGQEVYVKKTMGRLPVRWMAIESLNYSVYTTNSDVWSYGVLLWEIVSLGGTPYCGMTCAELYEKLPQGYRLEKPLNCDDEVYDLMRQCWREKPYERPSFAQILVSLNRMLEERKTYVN

In general, IC50 refers to the concentration at which inhibition is half-maximal. A lower IC50 goes with greater potency. In assay [1], `CNC(=O)c1cc(Oc2ccc3c(c2)CCN3C(=O)Nc2cccc(C(F)(F)F)c2)ccn1` [Example 3, 5-(2-Methylcarbamoyl-pyridin-4-yloxy)-2,3-dihydro-indole-1-carboxylic acid(3′-trifluoromethyl-phenyl)-amide] displayed an IC50 of less than 250 nM.
`CNC(=O)c1cc(Oc2ccc3c(c2)CCN3C(=O)Nc2ccc(F)c(C(F)(F)F)c2)ccn1` [Example 4, 5-(2-Methylcarbamoyl-pyridin-4-yloxy)-2,3-dihydro-indole-1-carboxylic acid(4′-fluoro-3′-trifluoromethyl-phenyl)-amide] had a 50% inhibitory concentration (IC50) in assay [1] of less than 250 nM.
In turn, `CNC(=O)c1cc(Oc2ccc3c(c2)CCN3C(=O)Nc2cc(C(F)(F)F)cc(C(F)(F)F)c2)ccn1` [Example 6, 5-(2-Methylcarbamoyl-pyridin-4-yloxy)-2,3-dihydro-indole-1-carboxylic acid(bis-3′,5′-trifluoromethylphenyl)-amide] showed a half-maximal inhibitory concentration (IC50) in assay [1] of less than 250 nM.
The molecule `CNC(=O)c1cc(Oc2ccc3c(c2)CCN3C(=O)Nc2cc(C(C)(C)C)on2)ccn1` [Example 7, 5-(2-Methylcarbamoyl-pyridin-4-yloxy)-2,3-dihydro-indole-1-carboxylic acid(5-tert-butyl-isoxazol-3-yl)-amide trifluoroacetate] had an IC50 in assay [1] of less than 250 nM.
`CNC(=O)c1cc(Oc2ccc3c(c2)CCN3C(=O)Nc2ccc(Cl)c(C(F)(F)F)c2)ccn1` [Example 8, 5-(2-Methylcarbamoyl-pyridin-4-yloxy)-2,3-dihydro-indole-1-carboxylic acid(4′-chloro-3′-trifluoromethyl-phenyl)-amide] gave an IC50 in assay [2] of less than 250 nM.
